Experimental data as given in ChEMBL document CHEMBL3885881, “DrugMatrix”.

Organism: Rattus norvegicus
Test: DrugMatrix - Regimen: Daily Repeat
Type: toxicity, organism-based, Sprague-Dawley
Parameters: regimen Daily Repeat, gender Male, age 6-8 weeks
Settings: in vivo, po, route oral GAVAGE, vehicle .5 % CMC; for ABSOLUTE BASOPHIL / ABSOLUTE EOSINOPHIL / ABSOLUTE LYMPHOCYTE / ABSOLUTE MONOCYTE / ABSOLUTE SEGMENTED NEUTROPHIL / BASOPHIL / EOSINOPHIL / ERYTHROCYTE COUNT / HEMATOCRIT / HEMOGLOBIN / LEUKOCYTE COUNT / LYMPHOCYTE / MEAN CORPUSCULAR HEMOGLOBIN / MEAN CORPUSCULAR HEMOGLOBIN CONCENTRATION / MEAN CORPUSCULAR VOLUME / MONOCYTE / NEUTROPHIL / NUCLEATED RED BLOOD CELLS / PLATELET COUNT: tissue Blood; for ALANINE AMINOTRANSFERASE / ALBUMIN / ALKALINE PHOSPHATASE / ASPARTATE AMINOTRANSFERASE / BLOOD UREA NITROGEN / CARBON DIOXIDE / CHLORIDE / CHOLESTEROL / CREATINE PHOSPHOKINASE / CREATININE / GLUCOSE / LACTATE DEHYDROGENASE / LIPASE / PHOSPHORUS / POTASSIUM / SODIUM / TOTAL BILIRUBIN / TOTAL PROTEIN / URIC ACID: tissue Plasma
[1] = 10 mg/kg, 72 h, dose level Low, time 3 day
[2] = 10 mg/kg, 120 h, dose level Low, time 5 day
[3] = 1500 mg/kg, 72 h, dose level High, time 3 day
[4] = 1500 mg/kg, 120 h, dose level High, time 5 day

With `Cc1ccc(S(=O)(=O)NC(=O)NN2CC3CCCC3C2)cc1` (configuration not stated) [GLICLAZIDE] the “ABSOLUTE BASOPHIL” value [1] was 0 CELLS/uL, the “ABSOLUTE EOSINOPHIL” value [1] was 0 CELLS/uL and the “ABSOLUTE LYMPHOCYTE” value [1] was 14055.67 CELLS/uL. For the same compound, the “ABSOLUTE MONOCYTE” value [1] was 174.33 CELLS/uL, the “ABSOLUTE SEGMENTED NEUTROPHIL” value [1] was 3203.33 CELLS/uL and the BASOPHIL [1] was 0%. The EOSINOPHIL [1] was 0%, the “ERYTHROCYTE COUNT” value [1] was 5.24 x10E6/uL and the HEMATOCRIT [1] was 35.87%. For the same compound, the HEMOGLOBIN [1] was 13.1 G/DL, the “LEUKOCYTE COUNT” value [1] was 17.43 x10E3/uL and the LYMPHOCYTE [1] was 80.33%. For the same compound, the “MEAN CORPUSCULAR HEMOGLOBIN” value [1] was 25.37 pg, the “MEAN CORPUSCULAR HEMOGLOBIN CONCENTRATION” value [1] was 36.67 G/DL and the “MEAN CORPUSCULAR VOLUME” value [1] was 70.43 fL. The MONOCYTE [1] was 1%, the NEUTROPHIL [1] was 18.67% and the “NUCLEATED RED BLOOD CELLS” value [1] was 7 /100WBC. The “PLATELET COUNT” value [1] was 1164.33 x10E3/uL, the “ALANINE AMINOTRANSFERASE” value [1] was 49.67 u/L and the ALBUMIN [1] was 4.1 G/DL. The “ALKALINE PHOSPHATASE” value [1] was 346.33 u/L, the “ASPARTATE AMINOTRANSFERASE” value [1] was 96.67 u/L and the “BLOOD UREA NITROGEN” value [1] was 16 mg/dL. The “CARBON DIOXIDE” value [1] was 25 mmol/L, the CHLORIDE [1] was 100.33 MEQ/L and the CHOLESTEROL [1] was 66.67 mg/dL. The “CREATINE PHOSPHOKINASE” value [1] was 653 u/L, the CREATININE [1] was 0.19 mg/dL and the GLUCOSE [1] was 179.33 mg/dL. The “LACTATE DEHYDROGENASE” value [1] was 157.33 u/L, the LIPASE [1] was 10 u/L and the PHOSPHORUS [1] was 13.27 mg/dL. The POTASSIUM [1] was 6.4 MEQ/L, the SODIUM [1] was 142.3 MEQ/L and the “TOTAL BILIRUBIN” value [1] was 0.27 mg/dL. For the same compound, the “TOTAL PROTEIN” value [1] was 5.77 G/DL, the “URIC ACID” value [1] was 2.23 mg/dL and the “ABSOLUTE BASOPHIL” value [2] was 0 CELLS/uL. The “ABSOLUTE EOSINOPHIL” value [2] was 0 CELLS/uL, the “ABSOLUTE LYMPHOCYTE” value [2] was 12400.33 CELLS/uL and the “ABSOLUTE MONOCYTE” value [2] was 0 CELLS/uL. The “ABSOLUTE SEGMENTED NEUTROPHIL” value [2] was 2133 CELLS/uL, the BASOPHIL [2] was 0% and the EOSINOPHIL [2] was 0%. The “ERYTHROCYTE COUNT” value [2] was 5.84 x10E6/uL, the HEMATOCRIT [2] was 35.33% and the HEMOGLOBIN [2] was 14.07 G/DL. The “LEUKOCYTE COUNT” value [2] was 14.53 x10E3/uL, the LYMPHOCYTE [2] was 86% and the “MEAN CORPUSCULAR HEMOGLOBIN” value [2] was 24.13 pg. For the same compound, the “MEAN CORPUSCULAR HEMOGLOBIN CONCENTRATION” value [2] was 39.8 G/DL, the “MEAN CORPUSCULAR VOLUME” value [2] was 60.6 fL and the MONOCYTE [2] was 0%. The NEUTROPHIL [2] was 14%, the “NUCLEATED RED BLOOD CELLS” value [2] was 0 /100WBC and the “PLATELET COUNT” value [2] was 1074.33 x10E3/uL. For the same compound, the “ALANINE AMINOTRANSFERASE” value [2] was 49 u/L, the ALBUMIN [2] was 4.23 G/DL and the “ALKALINE PHOSPHATASE” value [2] was 441 u/L. For the same compound, the “ASPARTATE AMINOTRANSFERASE” value [2] was 113.67 u/L, the “BLOOD UREA NITROGEN” value [2] was 15.33 mg/dL and the “CARBON DIOXIDE” value [2] was 25 mmol/L. For the same compound, the CHLORIDE [2] was 101.33 MEQ/L, the CHOLESTEROL [2] was 63.33 mg/dL and the “CREATINE PHOSPHOKINASE” value [2] was 738.33 u/L. For the same compound, the CREATININE [2] was 0.19 mg/dL, the GLUCOSE [2] was 153.67 mg/dL and the “LACTATE DEHYDROGENASE” value [2] was 958 u/L. The LIPASE [2] was 9 u/L, the PHOSPHORUS [2] was 11.2 mg/dL and the POTASSIUM [2] was 6.16 MEQ/L. For the same compound, the SODIUM [2] was 141.57 MEQ/L, the “TOTAL BILIRUBIN” value [2] was 0.2 mg/dL and the “TOTAL PROTEIN” value [2] was 5.97 G/DL. The “URIC ACID” value [2] was 1.43 mg/dL, the “ABSOLUTE BASOPHIL” value [3] was 0 CELLS/uL and the “ABSOLUTE EOSINOPHIL” value [3] was 66 CELLS/uL. For the same compound, the “ABSOLUTE LYMPHOCYTE” value [3] was 14884.33 CELLS/uL, the “ABSOLUTE MONOCYTE” value [3] was 365.67 CELLS/uL and the “ABSOLUTE SEGMENTED NEUTROPHIL” value [3] was 2117.33 CELLS/uL. For the same compound, the BASOPHIL [3] was 0%, the EOSINOPHIL [3] was 0.33% and the “ERYTHROCYTE COUNT” value [3] was 6.45 x10E6/uL. For the same compound, the HEMATOCRIT [3] was 39.57%, the HEMOGLOBIN [3] was 15.77 G/DL and the “LEUKOCYTE COUNT” value [3] was 17.43 x10E3/uL. The LYMPHOCYTE [3] was 85.33%, the “MEAN CORPUSCULAR HEMOGLOBIN” value [3] was 24.4 pg and the “MEAN CORPUSCULAR HEMOGLOBIN CONCENTRATION” value [3] was 39.83 G/DL. The “MEAN CORPUSCULAR VOLUME” value [3] was 61.27 fL, the MONOCYTE [3] was 2% and the NEUTROPHIL [3] was 12.33%. The “NUCLEATED RED BLOOD CELLS” value [3] was 0 /100WBC, the “PLATELET COUNT” value [3] was 1204.33 x10E3/uL and the “ALANINE AMINOTRANSFERASE” value [3] was 29 u/L. For the same compound, the ALBUMIN [3] was 4.03 G/DL, the “ALKALINE PHOSPHATASE” value [3] was 337.33 u/L and the “ASPARTATE AMINOTRANSFERASE” value [3] was 85.67 u/L. For the same compound, the “BLOOD UREA NITROGEN” value [3] was 17.33 mg/dL, the “CARBON DIOXIDE” value [3] was 26.33 mmol/L and the CHLORIDE [3] was 100.67 MEQ/L. For the same compound, the CHOLESTEROL [3] was 39.33 mg/dL, the “CREATINE PHOSPHOKINASE” value [3] was 319 u/L and the CREATININE [3] was 0.14 mg/dL. For the same compound, the GLUCOSE [3] was 104.67 mg/dL, the “LACTATE DEHYDROGENASE” value [3] was 118.33 u/L and the LIPASE [3] was 8.67 u/L. It also gave a PHOSPHORUS [3] of 11.03 mg/dL, a POTASSIUM [3] of 6.27 MEQ/L and an SODIUM [3] of 141.67 MEQ/L. For the same compound, the “TOTAL BILIRUBIN” value [3] was 0.13 mg/dL, the “TOTAL PROTEIN” value [3] was 5.43 G/DL and the “URIC ACID” value [3] was 2.57 mg/dL. For the same compound, the “ABSOLUTE BASOPHIL” value [4] was 0 CELLS/uL, the “ABSOLUTE EOSINOPHIL” value [4] was 0 CELLS/uL and the “ABSOLUTE LYMPHOCYTE” value [4] was 11101.33 CELLS/uL. The “ABSOLUTE MONOCYTE” value [4] was 80.33 CELLS/uL, the “ABSOLUTE SEGMENTED NEUTROPHIL” value [4] was 1151.67 CELLS/uL and the BASOPHIL [4] was 0%. For the same compound, the EOSINOPHIL [4] was 0%, the “ERYTHROCYTE COUNT” value [4] was 6.29 x10E6/uL and the HEMATOCRIT [4] was 37%. The HEMOGLOBIN [4] was 14.7 G/DL, the “LEUKOCYTE COUNT” value [4] was 12.33 x10E3/uL and the LYMPHOCYTE [4] was 90%. For the same compound, the “MEAN CORPUSCULAR HEMOGLOBIN” value [4] was 23.4 pg, the “MEAN CORPUSCULAR HEMOGLOBIN CONCENTRATION” value [4] was 39.8 G/DL and the “MEAN CORPUSCULAR VOLUME” value [4] was 58.83 fL. The MONOCYTE [4] was 0.67%, the NEUTROPHIL [4] was 9.33% and the “NUCLEATED RED BLOOD CELLS” value [4] was 0 /100WBC. The “PLATELET COUNT” value [4] was 1131.67 x10E3/uL, the “ALANINE AMINOTRANSFERASE” value [4] was 46 u/L and the ALBUMIN [4] was 4.17 G/DL. The “ALKALINE PHOSPHATASE” value [4] was 318 u/L, the “ASPARTATE AMINOTRANSFERASE” value [4] was 93 u/L and the “BLOOD UREA NITROGEN” value [4] was 21.33 mg/dL. The “CARBON DIOXIDE” value [4] was 23.33 mmol/L, the CHLORIDE [4] was 103.67 MEQ/L and the CHOLESTEROL [4] was 44.67 mg/dL. The “CREATINE PHOSPHOKINASE” value [4] was 248.33 u/L, the CREATININE [4] was 0.18 mg/dL and the GLUCOSE [4] was 101.67 mg/dL. For the same compound, the “LACTATE DEHYDROGENASE” value [4] was 168.33 u/L, the LIPASE [4] was 10 u/L and the PHOSPHORUS [4] was 10.43 mg/dL. The POTASSIUM [4] was 6.21 MEQ/L, the SODIUM [4] was 144.47 MEQ/L and the “TOTAL BILIRUBIN” value [4] was 0.1 mg/dL. The “TOTAL PROTEIN” value [4] was 5.7 G/DL and the “URIC ACID” value [4] was 1.7 mg/dL.
